In the NIST ThermoML archive (doi:10.1016/j.jct.2013.12.025):

Assay: xn = mol fraction of the nth substance listed
Details: 101 kPa, Liquid, Vibrating tube method

C=C[Si](C)(C)O[Si](C)(C)C=C [1,3-diethenyl-1,1,3,3-tetramethyldisiloxane] + CCc1ccccc1
mass density [kg/m3]
Details	283.15 K	288.15 K	293.15 K	298.15 K	303.15 K
x1 = 0.0501	871.7	867.28	862.84	858.47	854.01
x1 = 0.1001	867.93	863.46	858.98	854.58	850.08
x1 = 0.1499	864.35	859.85	855.33	850.89	846.35
x1 = 0.2001	860.93	856.41	851.85	847.37	842.8
x1 = 0.25	857.68	853.12	848.52	844.02	839.42
x1 = 0.3	854.59	850	845.38	840.85	836.21
x1 = 0.3499	851.64	847.02	842.37	837.8	833.13
x1 = 0.4	848.82	844.17	839.49	834.91	830.22
x1 = 0.4501	846.13	841.46	836.76	832.14	827.42
x1 = 0.5	843.56	838.86	834.13	829.5	824.76
x1 = 0.5503	841.09	836.39	831.62	826.96	822.2
x1 = 0.6	838.73	834.01	829.22	824.53	819.75
x1 = 0.6501	836.45	831.7	826.89	822.19	817.38
x1 = 0.6999	834.3	829.53	824.71	819.97	815.14
x1 = 0.7502	832.18	827.39	822.55	817.79	812.94
x1 = 0.8001	830.16	825.33	820.48	815.7	810.84
x1 = 0.85	828.22	823.42	818.54	813.71	808.83
x1 = 0.8999	826.37	821.53	816.65	811.81	806.91
x1 = 0.9498	824.65	819.79	814.89	810.02	805.11
x1 = 1	822.79	817.88	812.97	808.11	803.18
